What was measured:
W548L mutant ALS = biological target: T1, W548L mutant ALS (Oryza sativa subsp. japonica, UniProt Q6K2E8, W548L); experiment: Herbicide sensitivity of crude ALS with W548L mutation only, 1 mM valine; assay type: biochemical, rice; conditions: crude enzyme
T1 construct: one type of cDNA containing a full length ALS gene could be obtained from a cDNA library derived from the wild type; made in house; host or cells: E. coli JM 109, pGEX-2T backbone (pGEX-2T-wALS); crude enzyme solution
T1 sequence (Q6K2E8 44-644 W548L): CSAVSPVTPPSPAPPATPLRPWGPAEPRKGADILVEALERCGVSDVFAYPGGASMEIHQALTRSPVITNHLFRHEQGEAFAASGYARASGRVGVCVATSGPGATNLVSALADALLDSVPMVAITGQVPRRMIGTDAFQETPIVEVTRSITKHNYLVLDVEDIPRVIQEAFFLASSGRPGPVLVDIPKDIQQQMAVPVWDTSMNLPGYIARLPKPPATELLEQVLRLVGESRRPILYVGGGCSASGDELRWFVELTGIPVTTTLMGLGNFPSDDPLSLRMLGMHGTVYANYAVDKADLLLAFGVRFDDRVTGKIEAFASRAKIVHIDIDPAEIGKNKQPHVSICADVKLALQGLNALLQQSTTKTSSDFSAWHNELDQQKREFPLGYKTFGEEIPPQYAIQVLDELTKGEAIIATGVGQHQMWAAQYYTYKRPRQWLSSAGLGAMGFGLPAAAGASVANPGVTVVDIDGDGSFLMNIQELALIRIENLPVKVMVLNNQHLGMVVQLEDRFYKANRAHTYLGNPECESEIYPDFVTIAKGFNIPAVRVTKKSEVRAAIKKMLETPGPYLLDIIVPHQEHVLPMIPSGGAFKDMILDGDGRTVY
Description: A plasmid having W548L mutant ALS gene or a plasmid having S627I mutant ALS gene was transformed into E. coli strain JM 109. The colonies obtained from transformation were subjected to liquid culture, expression of GST induction protein was induced in the same manner as in Examples 4 and 5, a crude enzyme solution was prepared, and then herbicide sensitivity of ALS was examined in the presence of 1 mM valine.

[1] = system: rice plant transformed with the mutant ALS gene; experiment: Foliar spray of bispyribac-sodium on transformant rice plants, growth survey; assay type: in vivo, rice (Nippon-bare); conditions: 1 kg of a.i./ha with 0.2% surfactant K, sprayed over leaves and stems; about 40 days after spraying
Description: Of 80 hygromycin resistant transformant rice plants potted, those which grew normally at the leaf stage 5 were 27 plants to which the mutant ALS gene had been introduced and 46 plants to which the wild type ALS gene had been introduced. Plants containing the wild type ALS gene introduced therein tended to grow healthier than those containing the mutant ALS gene therein. At this time, 4 plants containing the mutant ALS gene introduced therein and 5 plants containing the wild type ALS gene introduced therein were appropriately selected, and 1 kg of a.i./ha bispyribac-sodium salt supplemented with 0.2% surfactant K was sprayed over the leaves and stems. In FIG. 40, the plant length A was about 90 cm.

[2] = system: callus of the wild type rice plant (Nippon-bare); experiment: Bispyribac-sodium sensitivity of callus of wild type rice plant; assay type: cell-based
[3] = system: callus of a rice plant (Nippon-bare) transformed with a mutant ALS gene; experiment: Bispyribac-sodium sensitivity of calli of rice transformed with the mutant ALS gene; assay type: cell-based
Description: Simultaneously with the above described potting, part of the calli which had not redifferentiated (9 calli) (FIG. 35) was sub-cultured on solid media for production of a bispyribac-sodium resistant callus used in Example 1. The solid media contained 10 μM bispyribac-sodium. Thus, 6 out of 9 calli grew normally. […] Accordingly, 6 calli grown on a solid medium containing 10 μM bispyribac-sodium were all shown to have strong bispyribac-sodium resistance.

wild type ALS protein = biological target: T2, wild type ALS protein (Oryza sativa subsp. japonica, UniProt Q6K2E8); experiment: Herbicide sensitivity of crude wild type ALS expressed in E. coli, in presence of valine; assay type: biochemical, rice; parameters: one type of cDNA containing a full length ALS gene could be obtained from a cDNA library derived from the wild type; made in house; host or cells: E. coli JM 105, pGEX-2T; crude enzyme solution (sonicate supernatant); conditions: crude enzyme from E. coli, valine added
T2 sequence (Q6K2E8 44-644): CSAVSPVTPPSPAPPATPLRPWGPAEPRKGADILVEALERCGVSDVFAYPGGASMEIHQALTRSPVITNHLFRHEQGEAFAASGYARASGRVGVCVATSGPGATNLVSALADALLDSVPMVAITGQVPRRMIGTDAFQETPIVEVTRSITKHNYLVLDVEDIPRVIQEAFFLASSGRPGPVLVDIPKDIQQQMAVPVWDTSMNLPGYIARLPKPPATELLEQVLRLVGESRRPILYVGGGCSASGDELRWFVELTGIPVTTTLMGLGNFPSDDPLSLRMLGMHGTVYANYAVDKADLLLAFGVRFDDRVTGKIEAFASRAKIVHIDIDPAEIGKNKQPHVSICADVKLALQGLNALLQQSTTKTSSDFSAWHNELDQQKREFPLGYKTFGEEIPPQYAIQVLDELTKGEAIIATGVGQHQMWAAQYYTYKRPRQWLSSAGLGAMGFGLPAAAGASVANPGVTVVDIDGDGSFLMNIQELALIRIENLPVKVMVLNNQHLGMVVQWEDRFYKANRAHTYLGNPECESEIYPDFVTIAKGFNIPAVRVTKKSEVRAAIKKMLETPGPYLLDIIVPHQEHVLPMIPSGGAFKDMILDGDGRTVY
Description: Preparation and purification of ALS from E. coli were performed by the following method. First, a pellet of the transformant E. coli stored at −80° C. was suspended in ALS extraction buffer (potassium phosphate buffer (pH 7.5) containing 30% glycerol and 0.5 mM MgCl2). Specifically, 2.5 ml of the buffer was added to the pellet obtained from 50 ml of the culture solution. The suspension was subjected to ultrasonication (Heat Systems-Ultrasonics, Sonicator W-225R, micro chip, output control 8, interval of approximately 1 sec, twice (40 sec each)), and subjected to centrifugation at 15000×g, 4° C. for 20 min, thereby obtaining the supernatant as a crude enzyme solution.
Herbicide sensitivity of mutant ALS protein was examined using the crude enzyme solution obtained in Example 4. Herbicide sensitivity test was performed in the manner same as that in Example 2. In the herbicide sensitivity test, three herbicides, bispyribac-sodium, pyrithiobac-sodium, and pyriminobac were used as PC herbicides; four drugs, chlorsulfuron, bensulfuron-methyl, pyrazosulfuron-ethyl and imazosulfuron were used as sulfonylurea herbicides; and two drugs, imazaquin, and imazapyr were used as imidazolinon herbicides. […]

Row | Structure (SMILES) | resistance imparted by W548L mutation alone (W548L mutant ALS) | growth of plant containing the mutant ALS gene after spraying [1] | drug sensitivity of wild type callus [2] | calli that grew normally on solid medium ([3]; 10 μM bispyribac-sodium) | drug sensitivity of transformant callus in liquid culture ([3]; one of the 6 normally growing calli) | wild type ALS activity in the presence of herbicide (wild type ALS protein)
1 | COc1cc(OC)nc(Oc2cccc(Oc3nc(OC)cc(OC)n3)c2C(=O)[O-])n1.[Na+] [Bispyribac-sodium, bispyribac-sodium] | imparted resistance | grew almost normally | showed bispyribac-sodium sensitivity | 6 out of 9 | showed bispyribac-sodium resistance | inhibited
2 | COc1nc(C)nc(NC(=O)NS(=O)(=O)c2ccccc2Cl)n1 [Chlorsulfuron, chlorsulfuron] | imparted resistance | – | – | – | – | –

Source: patent US7119256B2, “Gene encoding acetolactate synthase” (priority 2000, dated 2006)
